According to the supplement of paper PMC11061612:

Assays:
Experiment in all cases: Bliss excess, mean over the matrix (fraction); higher = more synergy
CAL-78 (Chondrosarcoma) = test system: CAL-78 (Chondrosarcoma)
In short: (§1)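 Cell lines grown in DMEM/F12 or RPMI with 10% FBS were plated in 1536-well plates and held 24 hours at 37°C, 5% CO2 before 72 hours of exposure to two-drug dose matrices, with DMSO typically at 0.2%. CellTiter-Glo 2.0 luminescence gave viability, which was converted to inhibition. Vehicle wells were set to 0 and blank wells to 1. Combination Emax is the second-highest inhibition in the matrix, and Bliss excess is the observed combination effect minus the expected EA + EB − EA·EB, where EA and EB are the single-agent effects.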

[1] = test system: DB (B-Cell Non-Hodgkin's Lymphoma)
In short: as §1

[2] = test system: DOV13 (Ovarian Carcinoma)
In short: as §1

[3] = test system: EM-2 (Chronic Myelogenous Leukemia)
In short: as §1

[4] = test system: G-292-Clone-A141B1 (Osteosarcoma)
In short: as §1

[5] = test system: HCC2157 (Breast Carcinoma)
In short: as §1

[6] = test system: HPAC (Pancreatic Carcinoma)
In short: as §1

[7] = test system: HT-29 (Colorectal Carcinoma)
In short: as §1

IGR-1 (Melanoma) = test system: IGR-1 (Melanoma)
In short: as §1

[8] = test system: IHH-4 (Thyroid Gland Carcinoma)
In short: as §1

J82 (Bladder Carcinoma) = test system: J82 (Bladder Carcinoma)
In short: as §1

[9] = test system: KATOIII (Gastric Carcinoma)
In short: as §1

[10] = test system: MDA-MB-157 (Breast Carcinoma)
In short: as §1

[11] = test system: MFH-ino (Other Solid Carcinomas)
In short: as §1

[12] = test system: NALM-6 (B-Lymphoblastic Leukemia)
In short: as §1

[13] = test system: SUIT-2 (Pancreatic Carcinoma)
In short: as §1

[14] = test system: SW1088 (Low Grade Glioma)
In short: as §1

[15] = test system: SW1990 (Pancreatic Carcinoma)
In short: as §1

[16] = test system: SW756 (Cervical Carcinoma)
In short: as §1

[17] = test system: TGBC24TKB (Biliary Tract Carcinoma)
In short: as §1

| Compound | Bliss excess (CAL-78 (Chondrosarcoma)) | Bliss excess [1] | Bliss excess [2] | Bliss excess [3] | Bliss excess [4] | Bliss excess [5] | Bliss excess [6] | Bliss excess [7] | Bliss excess (IGR-1 (Melanoma)) | Bliss excess [8] | Bliss excess (J82 (Bladder Carcinoma)) | Bliss excess [9] | Bliss excess [10] | Bliss excess [11] | Bliss excess [12] | Bliss excess [13] | Bliss excess [14] | Bliss excess [15] | Bliss excess [16] | Bliss excess [17] |
| --- | --- | --- | --- | --- | --- | --- | --- | --- | --- | --- | --- | --- | --- | --- | --- | --- | --- | --- | --- | --- |
| CN(C)CCCOc1ccc(-c2ccc3ncc4c(c3c2)n(C2CCOCC2)c(=O)n4C)cn1 [AZD0156] + C=CCn1c(=O)c2cnc(Nc3ccc(N4CCN(C)CC4)cc3)nc2n1-c1cccc(C(C)(C)O)n1 [AZD1775] (first compound max 1 µM, partner max 1 µM) | -0.0854 | -0.0119 | -0.0523 | -0.0548 | -0.0538 | -0.0233 | -0.0284 | -0.0411 | -0.031 | 0.0247 | -0.0194 | -0.064 | -0.0177 | -0.0954 | 0.0093 | 0.0011 | -0.0738 | -0.0358 | -0.0386 | -0.0224 |
| CN(C)CCCOc1ccc(-c2ccc3ncc4c(c3c2)n(C2CCOCC2)c(=O)n4C)cn1 [AZD0156] + CCN(CCO)CCCOc1ccc2c(Nc3cc(CC(=O)Nc4cccc(F)c4)[nH]n3)ncnc2c1 [AZD2811] (first compound max 1 µM, 7x7, partner max 1 µM) | 0.006 | -0.0221 | 0.0385 | -0.0445 | -0.0669 | 0.112 | 0.012 | -0.0109 | -0.0235 | 0.0153 | 0.0201 | -0.0366 | -0.0069 | -0.0453 | -0.0755 | -0.0029 | -0.0291 | -0.0536 | -0.016 | -0.0009 |
| CN(C)CCCOc1ccc(-c2ccc3ncc4c(c3c2)n(C2CCOCC2)c(=O)n4C)cn1 [AZD0156] + C[C@@H]1COCCN1C2=NC(=NC(=C2)C3(CC3)[S@](=N)(=O)C)C4=C5C=CNC5=NC=C4 [AZD6738] (first compound max 1 µM, 7x7, partner max 10 µM) | -0.0694 | -0.0151 | -0.0395 | 0.0124 | -0.0091 | 0.0548 | 0.067 | -0.0211 | -0.0032 | 0.0537 | 0 | -0.0207 | -0.0103 | -0.0591 | -0.0082 | 0.0103 | -0.0113 | -0.0202 | -0.0006 | -0.0165 |
| CN(C)CCCOc1ccc(-c2ccc3ncc4c(c3c2)n(C2CCOCC2)c(=O)n4C)cn1 [AZD0156] + O=C(c1cc(Cc2n[nH]c(=O)c3ccccc23)ccc1F)N1CCN(C(=O)C2CC2)CC1 [Olaparib] (first compound max 3 µM, partner max 3 µM) | 0.0042 | 0.149 | 0.0258 | 0.0753 | -0.0003 | 0.0313 | 0.0152 | 0.015 | -0.0006 | 0.0949 | -0.0375 | -0.0125 | -0.0302 | -0.061 | 0.173 | 0.028 | 0.022 | -0.0285 | -0.0192 | 0.0104 |
| C=CCn1c(=O)c2cnc(Nc3ccc(N4CCN(C)CC4)cc3)nc2n1-c1cccc(C(C)(C)O)n1 [AZD1775] + C1CN(CCC1(C(=O)N[C@@H](CCO)C2=CC=C(C=C2)Cl)N)C3=NC=NC4=C3C=CN4 [Capivasertib] (first compound max 3 µM, partner max 3 µM) | -0.0614 | -0.0264 | 0.0339 | -0.0724 | -0.0313 | -0.0183 | -0.0611 | -0.0357 | 0.011 | -0.005 | -0.0184 | -0.0773 | -0.0818 | -0.0204 | -0.0371 | -0.017 | -0.0707 | -0.0209 | -0.0075 | -0.034 |
| C=CCn1c(=O)c2cnc(Nc3ccc(N4CCN(C)CC4)cc3)nc2n1-c1cccc(C(C)(C)O)n1 [AZD1775] + C[C@@H]1COCCN1C2=NC(=NC(=C2)C3(CC3)[S@](=N)(=O)C)C4=C5C=CNC5=NC=C4 [AZD6738] (first compound max 1 µM, partner max 10 µM) | 0.0171 | -0.0023 | 0.0366 | 0.0362 | -0.0665 | 0.0218 | 0.0473 | -0.0089 | 0.0632 | 0.0534 | 0.0305 | -0.0139 | 0.0217 | -0.0909 | 0.0491 | -0.0287 | -0.0902 | -0.0352 | -0.0278 | -0.0018 |
| C=CCn1c(=O)c2cnc(Nc3ccc(N4CCN(C)CC4)cc3)nc2n1-c1cccc(C(C)(C)O)n1 [AZD1775] + O=C(c1cc(Cc2n[nH]c(=O)c3ccccc23)ccc1F)N1CCN(C(=O)C2CC2)CC1 [Olaparib] (first compound max 1 µM, partner max 10 µM) | -0.0833 | -0.0788 | -0.0389 | -0.0243 | 0.0161 | -0.0187 | 0.0077 | -0.0368 | 0.0054 | 0.0194 | -0.025 | -0.0227 | -0.0379 | -0.0128 | -0.0045 | -0.0049 | 0.0045 | -0.0697 | -0.0416 | -0.0499 |
